According to the AptaBench aptamer set (doi:10.1093/nar/gkaf219):

What was measured:
Settings in all cases: 10 mM Tris-HCl, pH 7.4
[1] = test system: DNA aptamer or structured DNA GGGACGACTGCTTGGGTAGGTCGGGTTTGGGTTCGGCGGTCGTCCC
[2] = test system: DNA aptamer or structured DNA GGGACGACAGTGGCGTTTATGGGTCGGGTGTGGGAAATGTCGTCCC
[3] = test system: DNA aptamer or structured DNA CTTACGACGGGTGCTGTTGGTTCTAGGGTTAGGATGGCGTCGTAAG
[4] = test system: DNA aptamer or structured DNA CTTACGACGACCTAGTGGGGGTAGTTATAGTTGGGTGAGTCGTAAG
[5] = test system: DNA aptamer or structured DNA GGGACGACGGAGGTGTAGGGTTTAGGTAGTGGTTTGAAGTCGTCCC
[6] = test system: DNA aptamer or structured DNA TTCAAATCTGGCGTTCGGGTTTGTCTTATTGATGGATCAAGTCTAGATTTGAA
[7] = test system: DNA aptamer or structured DNA GGGACGACGGAAGGGTGTGCTGCGGTTTGGCTTCTGGCGTCGTCCC
[8] = test system: DNA aptamer or structured DNA CTTACGACATGGGATGTAAGTTAGTGGGTCGGATCCGGGTCGTAAG
[9] = test system: DNA aptamer or structured DNA CTTACGACTAGGTGTGGGTCGGCTGCTTTCGCAGGGTAGTCGTAAG
[10] = test system: DNA aptamer or structured DNA CTTACGACACAGGGGGTGGCTAGGGTGCGCGGGAGCTGGTCGTAAG
[11] = test system: DNA aptamer or structured DNA CTTACGACTAGGTGTGGGTCGGCTTTTTTTTAAGGGTAGTCGTAAG
[12] = test system: DNA aptamer or structured DNA CTTACGACGTGGGAAGTGTGGTTTGTGATCGGATCCGTGTCGTAAG
[13] = test system: DNA aptamer or structured DNA CTTACGACAAGGGATGTGAGTTAGTGTGTCGGATCTATGTCGTAAG
[14] = test system: DNA aptamer or structured DNA CTTACGACACATTTGGGTATTCTGGGTGAGCTGTGTCGTAAG
[15] = test system: DNA aptamer or structured DNA GGGACGACGGGAAATGGAAGCATTGGTTGAGTTACTCTGCTCCTGTCGTCCC
[16] = test system: DNA aptamer or structured DNA CTTACGACGTTGGGCTTATTAGGGGCTGGAGTGGGTGAGTCGTAAG
[17] = test system: DNA aptamer or structured DNA CTTACGACTAGGTGGGGGTCGGCCATGGGAGTGGGGTAGTCGTAAG
[18] = test system: DNA aptamer or structured DNA GGGACGACGGTTGGCTTGGGTCGGGTGTGGGTGCGGCGTCGTCCC
[19] = test system: DNA aptamer or structured DNA CTTACGACGGGGGTGTGGCTAGGGGTGGCGCGGGATCCGTCGTAAG
[20] = test system: DNA aptamer or structured DNA CTTACGACATGGGATGTGTAGTTAGTGGTCGGATCCGGGTCGTAAG
[21] = test system: DNA aptamer or structured DNA CTTACGACGGGTAGGCTGAGGGTCTGGAGTGGTTGGAAGTCGTAAG
[22] = test system: DNA aptamer or structured DNA CTTACGACACAGGGCGTGGAGTGGCTGGGCTTCAAGGGGTCGTAAG
[23] = test system: DNA aptamer or structured DNA CTTACGACTAGTTCCGGGTAGGGGTAGGTGTGGTTGTGGTCGTAAG
[24] = test system: DNA aptamer or structured DNA CTTACGACTAGGTGTGGGTCGGCTCCGAATGGAGGGTAGTCGTAAG
[25] = test system: DNA aptamer or structured DNA CTTACGACGGGTGGGGAGGCCCTCTAGTTGGGAACGGTGTCGTAAG
[26] = test system: DNA aptamer or structured DNA CTTACGACACAGGGCGTGGAGGAGCTGGGCTATTAGGGGTCGTAAG
[27] = test system: DNA aptamer or structured DNA CTTACGACTAGTGGAGTAGGGTCGGGTAGTGGGCCTCAGTCGTAAG
[28] = test system: DNA aptamer or structured DNA TTCAAATCTGAGCAGCCTAGTTACTGACGGGTTTATAGTACTCACATTGAGTCTAGATTTGAA
[29] = test system: DNA aptamer or structured DNA CTTACGACACACGGTGTGGATGAGGTGGGCTAATAGGGGTCGTAAG
[30] = test system: DNA aptamer or structured DNA GGGACGACGGGGCTGTGGGAGGGGGTTCATGGGTCCCGGTCGTCCC
[31] = test system: DNA aptamer or structured DNA CTTACGACTAGTCGGTGGGGGGTAGGCGGAGGGTTGTTGTCGTAAG
[32] = test system: DNA aptamer or structured DNA CTTACGACCGGTGTGCTCGGGGAAGGGGGCCCTAGGTGGTCGTAAG
[33] = test system: DNA aptamer or structured DNA TTCAAATCTTATGTACGTTCTATCGCATGGATGGGATTTTGGGTTACCTAGTCTAGATTTGAA
[34] = test system: DNA aptamer or structured DNA TTCAAATCTATGGTGCAGTGCGCAGGGACGGAGGTAAAACATGAGTTTTAGTCTAGATTTGAA
[35] = test system: DNA aptamer or structured DNA GGGACGACTAGCCGTGGCGTTGTCCGAACCAGTGAGTAGTCGTCCC
Throughout, for binding call: call rule not given here.

In the case of `COc1ccc2c3c1O[C@H]1C(=O)CC[C@@]4(O)[C@@H](C2)N(C)CC[C@]314`, the binding call [1] is reported as “no binding”, the binding call [2] is reported as “no binding” and the binding call [3] is reported as “no binding”. The binding call [4] was “no binding”, the binding call [5] was “no binding” and the binding call [6] was “no binding”. The binding call [7] was “no binding”, the binding call [8] was “no binding” and the binding call [9] was “no binding”. The binding call [10] was “binds”, the binding call [11] was “no binding” and the binding call [12] was “no binding”. For the same compound, the binding call [13] was “no binding”, the binding call [14] was “no binding” and the binding call [15] was “binds”. The binding call [16] was “no binding”, the binding call [17] was “no binding” and the binding call [18] was “no binding”. The binding call [19] was “no binding”, the binding call [20] was “no binding” and the binding call [21] was “no binding”. For the same compound, the binding call [22] was “no binding”, the binding call [23] was “no binding” and the binding call [24] was “no binding”.

`COC(=O)[C@@H]1C2CCC(C[C@@H]1OC(=O)c1ccccc1)N2C` (stereo partly specified) was tested, and the binding call [1] was “binds”, the binding call [2] was “no binding” and the binding call [25] was “no binding”. The Kd [3] was 0.057 µM, the binding call [5] was “binds” and the Kd [26] was 1.19 µM. For the same compound, the binding call [6] was “no binding”, the binding call [7] was “no binding” and the Kd [9] was 0.35 µM. For the same compound, the binding call [27] was “no binding”, the Kd [10] was 0.076 µM and the binding call [28] was “no binding”. The Kd [11] was 0.352 µM, the Kd [12] was 0.168 µM and the Kd [13] was 0.152 µM. For the same compound, the Kd [29] was 0.069 µM, the Kd [14] was 0.602 µM and the binding call [15] was “no binding”. The Kd [16] was 0.617 µM, the Kd [17] was 0.27 µM and the binding call [30] was “no binding”. For the same compound, the binding call [18] was “no binding”, the Kd [19] was 0.185 µM and the Kd [20] was 0.127 µM. For the same compound, the Kd [31] was 0.122 µM, the Kd [21] was 0.45 µM and the binding call [32] was “no binding”. It also gave a Kd [22] of 0.123 µM and a Kd [23] of 0.061 µM.

`CCN(CC)CCOC(=O)c1ccc(N)cc1` was tested, and the binding call [1] was “binds”, the binding call [2] was “binds” and the binding call [25] was “no binding”. The binding call [3] was “binds”, the binding call [4] was “no binding” and the binding call [5] was “binds”. The binding call [26] was “no binding”, the binding call [33] was “no binding” and the binding call [6] was “no binding”. The binding call [7] was “no binding”, the binding call [8] was “no binding” and the binding call [9] was “no binding”. The binding call [34] was “binds”, the binding call [27] was “no binding” and the binding call [10] was “binds”. For the same compound, the binding call [35] was “no binding”, the binding call [11] was “no binding” and the binding call [12] was “binds”. For the same compound, the binding call [13] was “binds”, the binding call [29] was “no binding” and the binding call [14] was “no binding”. The binding call [15] was “no binding”, the binding call [16] was “no binding” and the binding call [17] was “no binding”. The binding call [30] was “no binding”, the binding call [18] was “no binding” and the binding call [19] was “binds”. For the same compound, the binding call [31] was “no binding”, the binding call [21] was “binds” and the binding call [32] was “no binding”. The binding call [22] was “binds”, the binding call [23] was “binds” and the binding call [24] was “no binding”.
